Literature values, collected in patent US12642292B2, “Multi-compartment oral pouched product” (NICOVENTURES TRADING LIMITED, priority 2021, dated 2026).

Assays:
[1] = for solubility in water / aqueous environment: for CBD aqueous environment (e.g., saliva)
[2] = when isolated; converts via isomerization into trans-bixin

Row | Compound | solubility in water / aqueous environment [1] | chemical stability [2] | solubility in fats and alcohols ([1]; fats and alcohols)
1 | CC(/C=C/C=C(C)/C=C/C(=O)O)=C\C=C\C=C(C)\C=C\C=C(C)\C=C\C(=O)O (stereo in doubt) [norbixin, (2E,4E,6E,8E,10E,12E,14E,16E,18E)-4,8,13,17-tetramethylicosa-2,4,6,8,10,12,14,16,18-nonaenedioic acid] | water soluble |  | 
2 | C=C(C)[C@@H]1CCC(C)=C[C@H]1c1c(O)cc(CCCCC)cc1O [CBD, cannabidiol, reference compound] | insoluble in an aqueous environment |  | 
3 | COC(=O)/C=C/C(C)=C\C=C\C(C)=C\C=C\C=C(C)\C=C\C=C(C)\C=C\C(=O)O [bixin] | insoluble in water | chemically unstable when isolated | soluble in fats and alcohols
